≈ marks a conversion by molar mass, not a printed value. Bridge positions count the residues as written; N and C are the ends. Square brackets hold non-standard residues; d marks the D form. Peptide text beside a SMILES is read from it. * marks the point of attachment. X14 = CC(C)c1ccc(CO[C@@H](CCN)C(=O)*)cc1; X10 = NC[C@H](OCc1ccc(Cl)cc1)C(=O)*; X26 = NCC[C@H](OCC1CCCCC1)C(=O)*; X27 = NCCC(C(=O)*)c1cccc(Cl)c1; dCha = N[C@H](CC1CCCCC1)C(=O)O; X15 = NCCC(CC1CCCC1)C(=O)*; X19 = NCCC(C(=O)*)C1CCCCC1; Dab = NCC[C@H](N)C(=O)O; Dap = NC[C@H](N)C(=O)O
Experiments:
Assay type in all cases: cell-based
[1] = system: Klebsiella pneumoniae
Outline: (§1)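 Values are minimum inhibitory concentrations, reported in μg/mL. Compounds were tested for susceptibility against up to nine strains per organism, including resistant isolates.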

[2] = system: Escherichia coli
Outline: as §1

[3] = system: Acinetobacter baumannii
Outline: as §1

[4] = system: Pseudomonas aeruginosa
Outline: as §1

MIC K. pneumoniae 065 [1] [µg/mL] | MIC K. pneumoniae ATCC 13882 [1] [µg/mL] | MIC E. coli 058 [2] [µg/mL] | MIC E. coli ATCC 25922 [2] [µg/mL] | MIC A. baumanii ATCC BAA-747 [3] [µg/mL] | MIC A. baumanii NCTC 13424 [3] [µg/mL] | MIC P. aeruginosa ATCC 27853 [4] [µg/mL] | MIC P. aeruginosa CCUG 59347 [4] [µg/mL] | MIC K. pneumoniae 063 [1] [µg/mL] | MIC K. pneumoniae ATCC 4352 [1] [µg/mL] | MIC E. coli 061 [2] [µg/mL] | MIC E. coli NCTC 9001 [2] [µg/mL] | MIC A. baumanii 053 [3] [µg/mL] | MIC A. baumanii 056 [3] [µg/mL] | MIC P. aeruginosa 068 [4] [µg/mL] | MIC P. aeruginosa 070 [4] [µg/mL] | SMILES
1 (≈ 0.88 µM) | 0.25 (≈ 0.22 µM) | 4 (≈ 3.52 µM) | 0.5 (≈ 0.44 µM) | 0.125 (≈ 0.11 µM) | 0.06 (≈ 0.0528 µM) | 0.25 (≈ 0.22 µM) | 0.25 (≈ 0.22 µM) | 16 (≈ 14.1 µM) |  | 16 (≈ 14.1 µM) | 0.06 (≈ 0.0528 µM) | >64 | 64 (≈ 56.3 µM) | 2 (≈ 1.76 µM) | 8 (≈ 7.04 µM) | CC(C)C[C@@H]1NC(=O)[C@@H](CC2CCCCC2)NC(=O)[C@H](CCN)NC(=O)[C@@H](NC(=O)[C@H](CCN)NC(=O)[C@@H](NC(=O)C(CCN)CC2CCCC2)[C@@H](C)O)CCNC(=O)[C@H]([C@@H](C)O)NC(=O)[C@H](CCN)NC(=O)[C@H](CCN)NC1=O (stereo partly drawn) [Example 83, 4-amino-2-(cyclopentylmethyl) butanoyl polymyxin [D-cyclohexylalanine-6]nonapeptide] (X15-T[Dab][Dab][Dab][dCha]L[Dab][Dab]T; lactam 3-C)
4 (≈ 3.47 µM) | 0.25 (≈ 0.217 µM) | 8 (≈ 6.94 µM) | 0.125 (≈ 0.108 µM) | 0.25 (≈ 0.217 µM) | 0.25 (≈ 0.217 µM) | 0.25 (≈ 0.217 µM) | 0.5 (≈ 0.434 µM) | 32 (≈ 27.8 µM) |  | 8 (≈ 6.94 µM) |  | >32 | 32 (≈ 27.8 µM) |  | 8 (≈ 6.94 µM) | CC(C)C[C@@H]1NC(=O)[C@@H](CC2CCCCC2)NC(=O)[C@H](CCN)NC(=O)[C@@H](NC(=O)[C@H](CN)NC(=O)[C@@H](NC(=O)[C@H](CCN)OCC2CCCCC2)[C@@H](C)O)CCNC(=O)[C@H]([C@@H](C)O)NC(=O)[C@H](CCN)NC(=O)[C@H](CCN)NC1=O [Example 84, (S)-4-amino-2-(cyclohexyl-methoxy) butanoyl L-Thr-L-Dap-polymyxin [D-cyclohexylalanine-6]heptapeptide.] (X26-T[Dap][Dab][Dab][dCha]L[Dab][Dab]T; lactam 3-C)
0.5 (≈ 0.445 µM) | 0.5 (≈ 0.445 µM) | 4 (≈ 3.56 µM) | 0.125 (≈ 0.111 µM) | 0.125 (≈ 0.111 µM) | 0.125 (≈ 0.111 µM) | 0.5 (≈ 0.445 µM) | 0.5 (≈ 0.445 µM) | 8 (≈ 7.13 µM) |  | 16 (≈ 14.3 µM) | 0.06 (≈ 0.0535 µM) | 64 (≈ 57 µM) | 64 (≈ 57 µM) | 2 (≈ 1.78 µM) | 4 (≈ 3.56 µM) | CC(C)C[C@@H]1NC(=O)[C@@H](CC2CCCCC2)NC(=O)[C@H](CCN)NC(=O)[C@@H](NC(=O)[C@H](CN)NC(=O)[C@@H](NC(=O)C(CCN)C2CCCCC2)[C@@H](C)O)CCNC(=O)[C@H]([C@@H](C)O)NC(=O)[C@H](CCN)NC(=O)[C@H](CCN)NC1=O (stereo partly drawn) [Example 85, 4-amino-2-cyclohexylbutanoyl L-Thr-L-Dap-polymyxin [D-cyclohexylalanine-6]heptapeptide.] (X19-T[Dap][Dab][Dab][dCha]L[Dab][Dab]T; lactam 3-C)
0.5 (≈ 0.421 µM) | 0.25 (≈ 0.21 µM) | 2 (≈ 1.68 µM) | 0.25 (≈ 0.21 µM) | 0.25 (≈ 0.21 µM) | 0.125 (≈ 0.105 µM) | 0.25 (≈ 0.21 µM) | 0.5 (≈ 0.421 µM) | 64 (≈ 53.9 µM) |  | 16 (≈ 13.5 µM) | 0.25 (≈ 0.21 µM) | 64 (≈ 53.9 µM) | 32 (≈ 26.9 µM) | 4 (≈ 3.37 µM) | 4 (≈ 3.37 µM) | CC(C)C[C@@H]1NC(=O)[C@@H](CC2CCCCC2)NC(=O)[C@H](CCN)NC(=O)[C@@H](NC(=O)[C@H](CN)NC(=O)[C@@H](NC(=O)[C@H](CCN)OCc2ccc(C(C)C)cc2)[C@@H](C)O)CCNC(=O)[C@H]([C@@H](C)O)NC(=O)[C@H](CCN)NC(=O)[C@H](CCN)NC1=O [Example 88, (S)-4-amino-2-((4-isopropylbenzyl)oxy)butanoyl L-Thr-L-Dap-polymyxin [D-cyclohexylalanine-6]heptapeptide] (X14-T[Dap][Dab][Dab][dCha]L[Dab][Dab]T; lactam 3-C)

The next lines start with the molecule.

SMILES | MIC K. pneumoniae 065 [1] [µg/mL] | MIC K. pneumoniae ATCC 13882 [1] [µg/mL] | MIC E. coli 058 [2] [µg/mL] | MIC E. coli ATCC 25922 [2] [µg/mL] | MIC A. baumanii ATCC BAA-747 [3] [µg/mL] | MIC A. baumanii NCTC 13424 [3] [µg/mL] | MIC P. aeruginosa ATCC 27853 [4] [µg/mL] | MIC P. aeruginosa CCUG 59347 [4] [µg/mL] | MIC K. pneumoniae 063 [1] [µg/mL] | MIC K. pneumoniae ATCC 4352 [1] [µg/mL] | MIC E. coli 061 [2] [µg/mL] | MIC E. coli NCTC 9001 [2] [µg/mL] | MIC A. baumanii 053 [3] [µg/mL] | MIC A. baumanii 056 [3] [µg/mL] | MIC P. aeruginosa 068 [4] [µg/mL] | MIC P. aeruginosa 070 [4] [µg/mL]
CC(C)C[C@@H]1NC(=O)[C@@H](CC2CCCCC2)NC(=O)[C@H](CCN)NC(=O)[C@@H](NC(=O)[C@H](CN)NC(=O)[C@@H](NC(=O)C(CCN)c2cccc(Cl)c2)[C@@H](C)O)CCNC(=O)[C@H]([C@@H](C)O)NC(=O)[C@H](CCN)NC(=O)[C@H](CCN)NC1=O (stereo partly drawn) [Example 79, 4-Amino-2-(3-chlorophenyl) butanoyl L-Thr-L-Dap-polymyxin [D-cyclohexylalanine]-6 heptapeptide.] (X27-T[Dap][Dab][Dab][dCha]L[Dab][Dab]T; lactam 3-C) | 2 (≈ 1.74 µM) | 0.5 (≈ 0.434 µM) | 2 (≈ 1.74 µM) | 0.5 (≈ 0.434 µM) | 0.25 (≈ 0.217 µM) | 0.25 (≈ 0.217 µM) | 0.5 (≈ 0.434 µM) | 0.5 (≈ 0.434 µM) |  |  |  |  |  |  |  | 
CC(C)C[C@@H]1NC(=O)[C@@H](CC2CCCCC2)NC(=O)[C@H](CCN)NC(=O)[C@@H](NC(=O)[C@H](CN)NC(=O)[C@@H](NC(=O)[C@H](CN)OCc2ccc(Cl)cc2)[C@@H](C)O)CCNC(=O)[C@H]([C@@H](C)O)NC(=O)[C@H](CCN)NC(=O)[C@H](CCN)NC1=O [Example 81, (S)-3-amino-2-((4-chlorobenzyl)oxy) propanoyl L-Thr-L-Dap-polymyxin [D-cyclohexylalanine-6]heptapeptide] (X10-T[Dap][Dab][Dab][dCha]L[Dab][Dab]T; lactam 3-C) | 4 (≈ 3.43 µM) | 0.125 (≈ 0.107 µM) | 1 (≈ 0.857 µM) | 0.125 (≈ 0.107 µM) | 0.125 (≈ 0.107 µM) | 0.125 (≈ 0.107 µM) | 0.125 (≈ 0.107 µM) | 0.25 (≈ 0.214 µM) | 16 (≈ 13.7 µM) | 0.25 (≈ 0.214 µM) | 16 (≈ 13.7 µM) | 0.03 (≈ 0.0257 µM) | 32 (≈ 27.4 µM) | 8 (≈ 6.86 µM) | 2 (≈ 1.71 µM) | 2 (≈ 1.71 µM)

From patent US12146004B2, “Polymyxin compounds and uses thereof” (priority 2014, dated 2024)
